Read-outs that look alike come from different tables or passages of the source.
Columns and labels:
CCK secretion = conditions: humans, cited from earlier work
plasma GLP-1 = test: Plasma GLP-1 concentrations by radioimmunoassay; format: in vivo, human
Method: (§1) Once the catheter was positioned correctly, fasting motility was monitored until the occurrence of phase III of the interdigestive migrating motor complex (MMC). Immediately after the cessation of phase III activity [at time t=−15 min], a baseline venous blood sample was taken, and a visual analog scale questionnaire (VAS) (see Measurements), assessing appetite-related sensations, was administered. At t=0 min (i.e., during phase I of the MMC), the duodenal infusion of 1) C12, 2) C10, or 3) control solution was commenced and continued for 90 min. APD pressures were monitored throughout the infusion period; blood samples were taken, and the VAS administered every 15 min from t=0 min until t=90 min. At t=90 min, the infusion was terminated, and the subject was immediately extubated and offered a cold buffet-style meal, the composition of which is provided in Table 1. The amount of food offered was in excess of what the subject was expected to consume. The subject was given 30 min (i.e., t=90 min to t=120 min) to consume the meal and instructed to eat until comfortably full. After ingestion of the meal, the subject was monitored for a further 30 min, a further VAS was completed, and blood samples were taken at t=120 and 150 min. The intravenous cannula was then removed, and the subject was allowed to leave the laboratory.
(§2) Venous blood samples (10 ml) were collected in ice-chilled EDTA-treated tubes containing 400 kIU aprotinin (Trasylol, Bayer Australia) per millilitre of blood. Plasma was separated by centrifugation (3,200 rpm, 15 min, 4° C.) within 30 min of collection and stored at −70° C. until assayed.
Plasma GLP-1 concentrations (in pmol/l) were measured by radioimmunoassay using an adaptation of a previously published method (4) Antibody, supplied by Prof. […] It is likely that this antibody also reacts with the degraded form of GLP-1(9-36) amide. Intra-assay CV was 17% and interassay CV was 18%, with a sensitivity of 1.5 pmol/l.

[1] = Appetite perceptions (VAS scores) during and after 90 min intraduodenal infusion; format: in vivo, human
Method: (§3) Each subject was studied on three occasions, separated by 3-10 days, to evaluate, in a double-blind, randomized fashion, the effects of intraduodenal infusions of 1) C12, 2) C10, or 3) control solution for 90 min on appetite perceptions, energy intake, APD pressures, and plasma CCK and GLP-1 concentrations.
as §1
Appetite sensations and energy intake. Subjective sensations of appetite, including hunger, fullness, desire to eat, prospective consumption (“how much food do you think you could eat if you were given a meal now?”), were assessed using validated VASs (Sensations of nausea and bloating were also assessed. Each VAS evaluated a sensation on a 100-mm horizontal line, where 0 represented “sensation is not felt at all” and 100 represented “sensation is felt the greatest.” Subjects were asked to place a vertical stroke on the 100-mm line in relation to what they were feeling at that particular point in time.
Baseline (“0”) values were calculated as the mean of values obtained at t=−15 and 0 min for VAS scores and plasma hormone concentrations and between t=−15 to 0 min for basal pyloric pressures, number, and amplitude of IPPWs, antral and duodenal PWs, and total number of duodenal PWSs. Basal pyloric pressures and the number and amplitude of IPPWs were expressed as means over 15-min segments during the 90-min infusion period. Numbers and amplitudes of antral and duodenal PWs were expressed as total number and mean values, respectively, for the 90-min infusion period. Duodenal PWSs were expressed as the total number of waves travelling over two, three, four, five, six, and seven channels during the 90-min infusion period. All data, except for plasma CCK and GLP-1 concentrations, were expressed as changes from baseline.
VAS scores, basal pyloric pressures, number and amplitude of IPPWs, and plasma hormone concentrations were analyzed by repeated-measures mixed model analysis of covariance (ANCOVA), with baseline as the covariate and time (0-90 min, at 15-min intervals) and treatment as within-subject factors. One-way ANOVA was used to assess the effect of treatment on energy intake, time taken to complete eating, total numbers and mean amplitudes of antral and duodenal PWs, and total number of duodenal PWSs. A logarithmic transformation was applied to nausea scores, antral amplitudes, and duodenal PWSs travelling 7.5 and 9 cm to better address the underlying assumptions of the models used (as these variables lacked normal distribution). If significance or near significance ([…]) was found, post hoc comparisons of least-squares means using Student's t-tests were performed. […]

[2] = Antropyloroduodenal (APD) pressures by manometry during intraduodenal infusion; format: in vivo, human
Description: Subjects attended the laboratory at 0830 after fasting from 2200 the previous night from both solids and liquids. They were intubated with a 17-channel manometric catheter (Dentsleeve; Adelaide, South Australia, Australia) that was inserted through an anesthetized nostril and allowed to pass through the stomach and into the duodenum by peristalsis. The manometric catheter, which consisted of 16 sideholes spaced at 1.5-cm intervals, measures pressures in the antrum, pylorus, and duodenum. Six side holes (channels 1-6) were positioned in the antrum, a 4.5-cm sleeve sensor (channel 7), with two channels present on the back of the sleeve (channels 8 and 9), designed to measure pressure waves occurring over the entire pyloric region, were positioned across the pylorus, and seven channels were positioned in the duodenum (channels 10-16). An additional channel, used for intraduodenal infusions, was positioned 11.75 cm distal to the end of the sleeve sensor. The correct positioning of the catheter, so the sleeve sensor straddled the pylorus, was maintained by continuous measurement of the transmucosal potential difference (TMPD) between the most distal antral channel (channel 6; approximately −40 mV) and the most proximal duodenal channel (channel 10; ˜0 mV). For this purpose, an intravenous cannula filled with sterile saline was placed subcutaneously in the left forearm and used as a reference electrode. All manometric channels were perfused with degassed, distilled water except for the two TMPD channels, which were perfused with degassed 0.9% saline at 0.15 ml/min. An intravenous cannula was also placed into a right forearm vein for blood sampling to measure plasma CCK and GLP-1 concentrations.
as §1
APD pressures. Manometric pressures were digitized, recorded on a computer-based system (PowerMac 7100/75, Apple Computers; Cupertino, Calif.) running commercially available software (HAD, Associate Prof. G S Hebbard, Melbourne, Australia) written in LabView 3.1.1 (National Instruments), and stored for subsequent analysis. APD pressures were analysed for 1) number and amplitude of isolated pyloric pressure waves (IPPWs) and pressure waves (PWs) in the antrum and duodenum and 2) number and length of PW sequences (PWSs) in the duodenum using custom-written software (Gastrointestinal Motility Unit; Utrecht, The Netherlands) modified to our requirements. […]

[3] = Energy intake from the buffet meal after intraduodenal infusion; format: in vivo, human
Method: as §3, §1
Energy intake from the buffet meal [energy consumption (in kJ) and macronutrient distribution (in % and g energy)] was analyzed using commercially available software (Food works 3.0, Xyris Software; Highgate Hill, Queensland, Australia). The time taken to finish the meal (in min) was also evaluated.

plasma CCK = test: Plasma CCK concentrations by radioimmunoassay; format: in vivo, human
Method: as §1, §2
Plasma CCK concentrations (in pmol/l) were determined after ethanol extraction using a previously described radioimmunoassay (3). A commercially available antibody (C258, Lot 105H4852, Sigma Chemical) raised in rabbits against the synthetic sulfated CCK-8 was employed. […] The intra-assay coefficient of variation (CV) was 9% and the interassay CV was 27%, with a sensitivity of 2.5 pmol/l. The sensitivity of the assay relates to its reliable detection limit.

[4] = isomolar concentrations; cited from earlier work
[5] = during 90 min intraduodenal infusion, 0.375 kcal/min, compared with control
[6] = 90 min infusion, compared with control
[7] = buffet meal, compared with control

SMILES: CCCCCCCCCC(=O)O [C10, decanoic (C10:0) acid, reference compound]
- stimulation of CCK secretion (CCK secretion; gastric infusion): neither C11 nor C10
- plasma GLP-1 concentrations compared with control (plasma GLP-1; during infusion, C12 effect from 30 to 90 min): no difference between C10 and control
- plasma GLP-1 concentrations after meal ingestion (plasma GLP-1; t=120 and 150 min, compared with control): no difference between C10 and control
- fullness (VAS) after meal ingestion ([1]; at 120 and 150 min, after the buffet meal): no difference between C10 and control
- scores for bloating (VAS) ([1]; during 90 min intraduodenal infusion, 0.375 kcal/min): increased scores for bloating compared with control
- nausea scores (VAS) [1, 5]: no difference in nausea scores between C10 and control
- scores for hunger (VAS) [1, 5]: no differences were found between C10 and control
- scores for prospective consumption (VAS) [1, 5]: no differences were found between C10 and control
- scores for desire to eat (VAS) ([1]; during 90 min intraduodenal infusion, 0.375 kcal/min, healthy males, compared with control): no differences were found between C10 and control
- basal pyloric pressure (tone) [2, 6]: significant difference between C10 and control
- number of antral PWs [2, 6]: no difference between C10 and control
- number of duodenal PWs [2, 6]: increased the number of duodenal PWs compared with control
- number of IPPWs compared with control ([2]; C12: 0-15, 15-30 and 30-45 min, C10: 0-15 min): increased the number of IPPWs compared with control between 0 and 15 min
- number of duodenal PWSs travelling over six channels (7.5 to <9 cm) ([2]; compared with control): decreased the number of waves that travelled over six channels compared with control
- number of duodenal PWSs travelling over three channels (3 to <4.5 cm) ([2]; compared with control): no difference between C12 or C10 and control
- number of duodenal PWSs travelling over two channels (1.5 to <3 cm) ([2]; compared with control): increased the number of waves compared with control
- number of waves that travelled over nine channels ([2]; compared with control): no difference between C10 and control
- amplitude of IPPWs compared with control ([2]; throughout the infusion period): no significant differences between C10 and control
- energy intake at buffet meal ([3]; after 90 min intraduodenal infusion 0.375 kcal/min, compared with control): no difference between C10 and control infusion
- amount of energy (in g) ingested from carbohydrate [3, 7]: no difference between C10 and control
- amount of energy (in g) ingested from fat [3, 7]: no difference between C10 and control
- amount of energy (in g) ingested from protein [3, 7]: no difference between C10 and control
- time at which eating from the buffet meal was completed ([3]; mean±SE, not statistically significant): 20.6 ± 2.6 min
- plasma CCK concentrations (plasma CCK; during 90 min infusion, compared with control): increased plasma CCK concentrations
- time of peak plasma CCK (plasma CCK; from start of infusion): 15 min
- cytotoxicity relative to C12 [4]: similar

SMILES: CCCCCCCCCCC(=O)O [C11]
- stimulation of CCK secretion (CCK secretion; gastric infusion): neither C11 nor C10

SMILES: CCCCCCCCCCCCCCCCCC(=O)O [C18]
- stimulation of CCK secretion (CCK secretion; duodenal infusion): reported to stimulate CCK secretion

— US20060167094A1, “Satiety agent” (priority 2005, published 2006)
